The values that follow are results of earlier work, collected in US20060148897A1, “Method for sterilization using in situ gelling materials” (priority 2002, published 2006).

The conditions of this data set: amine group (alpha amine; lysine: side chain epsilon amine).

Take `NC(=O)C[C@H](N)C(=O)O` [asparagine]: the pK is listed as 8.8. Turning to `NCCCC[C@H](N)C(=O)O` [lysine], the pK is 10.80.
